Laboratory results taken from patent publication US20240025862A1, “SUBSTITUTED N-PHENYLURACILS AND SALTS THEREOF, AND USE THEREOF AS HERBICIDAL ACTIVE SUBSTANCES” (Bayer Aktiengesellschaft, priority 2020, published 2024).

Key:
Type in all cases: in vivo
[1] = test system: Amaranthus retroflexus (AMARE); assay: Post-emergence herbicidal action, greenhouse pot test; settings: rated visually after about 3 weeks vs untreated controls, 100% = plants have died
How it was run: (§1)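 Greenhouse-grown weeds in sandy loam were sprayed post-emergence at the one-leaf stage, 2–3 weeks after sowing. Compounds were formulated as WP or EC in water with 0.5% additive at 600 l/ha, at rates of 20 g/ha or less. Visual rating after about 3 weeks used a scale from 0% (like untreated control) to 100% (plants dead).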

Veronica persica (VERPE) = assay: as above
How it was run: as §1

Viola tricolor (VIOTR) = assay: as above
How it was run: as §1

Avena fatua (AVEFA) = assay: as above; settings: 20 g/ha, rated visually after about 3 weeks vs untreated controls, 100% = plants have died
How it was run: as §1

[2] = test system: Polygonum convolvulus (POLCO); assay: as above
How it was run: as §1

[3] = test system: Abutilon theophrasti (ABUTH); assay: as above; settings: rated visually after about 3 weeks vs untreated controls, 100% = plants have died
How it was run: as §1

Lolium rigidum (LOLRI) = assay: as above; settings: dosage 20 g/ha
How it was run: as §1

[4] = test system: Pharbitis purpurea (PHBPU); assay: as above
How it was run: as §1

[5] = test system: Alopecurus myosuroides (ALOMY); assay: Post-emergence herbicidal action, greenhouse pot test (also comparative test C); settings: rated visually after about 3 weeks vs untreated controls, 100% = plants have died
How it was run: (§2)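 Visual rating against untreated controls, about 3 weeks after spraying, from 0% (like control) to 100% (plants dead). Weeds were treated at the one-leaf stage, 2–3 weeks after sowing in sandy loam, with aqueous WP/EC spray containing 0.5% additive at 600 l/ha. Doses were ≤20 g/ha, or ≤5 g/ha for comparative test C.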

[6] = test system: Matricaria inodora (MATIN); assay: as above
How it was run: as §2

Setaria viridis (SETVI) = assay: as above; settings: for Post-emergence action against SETVI: 20 g/ha
How it was run: as §2

[7] = test system: Echinochloa crus-galli (ECHCG); assay: as above
How it was run: as §2

Zea mays (ZEAMX) = assay: Post-emergence crop plant compatibility, greenhouse pot test; settings: 1.25 g/ha, vs untreated controls
How it was run: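 Percent crop injury was judged by eye roughly three weeks after treatment, relative to untreated plants, where 100% meant death. Application was a post-emergence spray at the one-leaf stage, 600 l/ha water volume with 0.5% additive; letters a, b, c denote differing dose rates.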

Oryza sativa (ORYSA) = assay: Post-emergence crop plant compatibility, greenhouse pot test (also comparative test C); settings: vs untreated controls
How it was run: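 Rice and other crops sprayed post-emergence at one-leaf stage (2–3 weeks after sowing) with WP or EC formulations plus 0.5% additive at 600 l/ha water. Visual rating about 3 weeks later versus untreated controls (100% = dead, 0% = like control); suffixes a–c denote different doses.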

Row | Structure (SMILES) | Post-emergence action at 1.25 g/ha against AMARE in % [1] | Post-emergence action at 5 g/ha against AMARE in % [1] | Post-emergence action at 20 g/ha against AMARE in % [1] | Post-emergence action against VERPE (Veronica persica (VERPE); 1.25 g/ha) | Post-emergence action against VERPE (Veronica persica (VERPE); 5 g/ha) | Post-emergence action against VERPE (Veronica persica (VERPE); 20 g/ha) | Post-emergence action against VIOTR (Viola tricolor (VIOTR); 1.25 g/ha) | Post-emergence action against VIOTR (Viola tricolor (VIOTR); 5 g/ha) | Post-emergence action against VIOTR (Viola tricolor (VIOTR); 20 g/ha) | Post-emergence action at 20 g/ha against AVEFA in % (Avena fatua (AVEFA)) | Post-emergence action against POLCO in % ([2]; dosage 5 g/ha) | Post-emergence action against POLCO in % ([2]; dosage 20 g/ha) | Post-emergence action at 1.25 g/ha against ABUTH in % [3] | Post-emergence action at 5 g/ha against ABUTH in % [3] | Post-emergence action at 20 g/ha against ABUTH in % [3] | Post-emergence action against LOLRI in % (Lolium rigidum (LOLRI)) | Post-emergence action against PHBPU in % ([4]; dosage 1.25 g/ha) | Post-emergence action against PHBPU in % ([4]; dosage 5 g/ha) | Post-emergence action against PHBPU in % ([4]; dosage 20 g/ha) | Post-emergence action at 5 g/ha against ALOMY in % [5] | also measured
1 | Cn1c(C(F)(F)F)cc(=O)n(-c2cc(Oc3ccccc3OCC(=O)OCc3ccncc3)c(Cl)cc2F)c1=O [I.7-278] | 100% | 100% | 100% | 100% | 100% | 100% | 90% | 100% | 100% | 80% | 80% | 100% | 100% | 100% | 100% | 80% | 100% | 100% | 100% | 90% | Post-emergence action at 20 g/ha against ALOMY in % [5]: 100%; Post-emergence action against MATIN in % ([6]; dosage 5 g/ha): 80%; Post-emergence action against MATIN in % ([6]; dosage 20 g/ha): 100%; Post-emergence action against SETVI (Setaria viridis (SETVI)): 100%; Post-emergence action against SETVI in % (Setaria viridis (SETVI); dosage 1.25 g/ha): 100%; Post-emergence action against SETVI in % (Setaria viridis (SETVI); dosage 5 g/ha): 100%; Post-emergence action at 1.25 g/ha against ECHCG in % ([7]; 1.25 g/ha, rated visually after about 3 weeks vs untreated controls, 100% = plants have died): 80%; Post-emergence action against ECHCG in % ([7]; dosage 5 g/ha): 100%; Post-emergence action against ECHCG in % ([7]; dosage 20 g/ha): 100%; Post-emergence action against ZEAMX (crop plant compatibility) (Zea mays (ZEAMX)): 0%; Post-emergence action against ORYSA (crop plant compatibility) (Oryza sativa (ORYSA); 1.25 g/ha): 0%
2 | CCOCCOC(=O)COc1ccccc1Oc1cc(-n2c(=O)cc(C(F)(F)F)n(C)c2=O)c(F)cc1Br [I.8-2] | 100% | 100% | 100% | 100% | 100% | 100% | 100% | 100% | 100% | 100% | 100% | 100% | 100% | 100% | 100% | 90% | 100% | 100% | 100% | 100% | Post-emergence action at 1.25 g/ha against ALOMY in % ([5]; 1.25 g/ha): 80%; Post-emergence action at 20 g/ha against ALOMY in % [5]: 100%; Post-emergence action against MATIN in % ([6]; dosage 1.25 g/ha): 100%; Post-emergence action against MATIN in % ([6]; dosage 5 g/ha): 100%; Post-emergence action against MATIN in % ([6]; dosage 20 g/ha): 100%; Post-emergence action against SETVI (Setaria viridis (SETVI)): 100%; Post-emergence action against SETVI in % (Setaria viridis (SETVI); dosage 1.25 g/ha): 100%; Post-emergence action against SETVI in % (Setaria viridis (SETVI); dosage 5 g/ha): 100%; Post-emergence action against ECHCG in % ([7]; dosage 5 g/ha): 100%; Post-emergence action against ECHCG in % ([7]; dosage 20 g/ha): 100%; Post-emergence action against ZEAMX (crop plant compatibility) (Zea mays (ZEAMX)): 20%; Post-emergence action against ORYSA (crop plant compatibility) (Oryza sativa (ORYSA); 1.25 g/ha): 0%; Post-emergence action against ORYSA (crop plant compatibility) (Oryza sativa (ORYSA); 5 g/ha): 0%
